From patent US12180255B2, “Compositions and methods for derepressing RE1 silencing transcription factor target genes” (Alcamena Stem Cell Therapeutics, LLC, priority 2019, dated 2024)
Where “and” joins values, the source holds several entries; their conditions need not be identical. Identical values can stand only once. Where a SMILES comes first, the peptide text is derived from it. [ ]: non-standard residue; d: D form. Gly(Dodecyl) = CCCCCCCCCCCC[C@H](N)C(=O)O

What was measured:
[1] = system: L5 DRGs; test: qRT-PCR mRNA expression in ex vivo cultured L5 DRGs; format: cell-based, Sprague Dawley rat; settings: for Increase, BDNF mRNA / Increase, KV4.3 mRNA / Increase, KV7.2 mRNA / Increase, NGF mRNA / Increase, Nav1.8 mRNA / Increase, OPRM1 mRNA: DRG
Procedure: FIG. 15. […] Error bars =standard error of the mean.
L5 DRGs were dissected from adult male rats and plated in 12-well plates pre-coated with poly-D-Lysine (PDL) and laminin in a minimal volume of medium (250 ul Neurobasal™-A medium (GIBCO) supplemented with B27 (GIBCO), 50 ng/ml NGF (Sigma-Aldrich) and penicillin streptomycin) to allow attachment to the culture plate. One day after plating, DRGs were incubated with RPP (SEQ. ID NO: 12: 1 μM, 3 μM or 10 μM in culture medium, FIGS. 14 and 16; SEQ ID NOS: 13 and 14: 3 μM, FIG. 15) for 48 h. For RNA expression analysis, DRGs were lysed in 300 μl of Qiazol in a 1.5 ml tube containing Bullet Blender Pink Beads using a Bullet Blender Tissue Homogenizer (NextAdvance). Total RNA was extracted using RNeasy Midi Kit (Qiagen) according to manufacturer's instructions. Purified RNA was quantified with NanoDrop 2000 (ThermoFIsher), and reverse transcription was run using High Capacity cDNA Reverse Transcription Kit (Applied Biosystems) and 2 ng/ul RNA per reaction. For qRT-PCR, 5 ul of cDNA (corresponding to 10 ng of RNA) were mixed with to 10 ul SsoAdvanced™ Universal SYBR® Green Supermix (BioRad) and 1 ul of each primer (final primer concentration 500 nM each). Reactions were run in triplicates in a QuantStudio™ 7 Flex Real-Time PCR system (Applied Biosystems). Amplification data were analyzed using the comparative cycle threshold (ΔΔCt) method and β-actin as calibrator. Primers were as follows: β-actin: F-[…] (SEQ ID NO: 340), R-[…] (SEQ ID NO: 333); KV4.3: F-[…] (SEQ ID NO: 341), R-[…] (SEQ ID NO: 342); KV7.2 F-[…] AG (SEQ ID NO: 343), R-[…] (SEQ ID NO: 344); OPRM1: F-[…] (SEQ ID NO: 345), R-[…] (SEQ ID NO: 346).

[2] = biological target: T1, CTDSP1 (Homo sapiens, UniProt Q9GZU7); test: In vitro CTDSP1 phosphatase activity on phosphorylated REST peptide; format: biochemical; settings: phosphorylated REST peptide substrate; read-out: EC50, inhibition of CTDSP1 activity
T1 construct: GSGS linker + His6 (C)
T1 sequence (Q9GZU7 with tags, fused parts or gaps): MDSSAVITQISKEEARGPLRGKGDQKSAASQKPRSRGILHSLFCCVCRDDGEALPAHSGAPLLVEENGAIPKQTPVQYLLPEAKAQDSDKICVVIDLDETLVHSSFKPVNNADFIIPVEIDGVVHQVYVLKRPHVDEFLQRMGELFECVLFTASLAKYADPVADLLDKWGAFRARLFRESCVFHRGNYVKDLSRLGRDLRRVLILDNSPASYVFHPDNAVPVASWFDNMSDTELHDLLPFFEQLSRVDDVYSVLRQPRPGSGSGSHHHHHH
Procedure: FIG. 25. In vitro CTDSP1 phosphatase activity (relative to GST control) on the REST peptide (TEDpSPPp[…] (SEQ ID NO: 329)) as a substrate after exposure to 1 μM of RPP (SEQ ID NO: 1) or one of its variants (Table 3).
FIG. 26. […] N=5, error bars are standard deviation.
Results: FIG. 25—The top 51 most abundant RPP variants identified in the RNA display/protein evolution screen are listed in-Table 3 in the order of most (V1) to least (V51) abundant peptides. The primers used to make these peptides are listed in-Table 5. A phosphatase activity screen (Table 6, FIG. 25) was used to assess the ability of the top 51 RPPV to inhibit CTDSP1 phosphatase activity at amino acids 861 and 864 on the endogenous phosphorylated REST peptide (TEDpSPPp[…] (SEQ ID NO: 329)).
The phosphorylated REST peptide (TEDpSPPp[…] (SEQ ID NO: 329)) was synthesized by GeneScript. Phosphatase reactions were performed with 10 mM Tris pH 8, 10 mM MgCl2, 100 nM CTDSP1, 0.5 μM phosphate sensor (Thermo Fischer), 50 μM of REST peptide and various concentrations of peptide-GST fusions at room temperature for 10 min. All assays were performed in 96-well pates (Corning P/N 3686) rinsed with water 10 times. Fluorescence was measured by BioTek Synergy HTX using kinetic read with excitation at 420/27 nm and emission at 485/20 nm.

[3] = biological target: T1, CTDSP1; test: as above; format: biochemical; settings: relative to water control
[4] = biological target: T2, PPM1A (Homo sapiens, UniProt P35813); test: Off target phosphatase activity on phosphorylated REST peptide; format: biochemical; settings: 10000 nM RPP
T2 sequence (P35813 1-382): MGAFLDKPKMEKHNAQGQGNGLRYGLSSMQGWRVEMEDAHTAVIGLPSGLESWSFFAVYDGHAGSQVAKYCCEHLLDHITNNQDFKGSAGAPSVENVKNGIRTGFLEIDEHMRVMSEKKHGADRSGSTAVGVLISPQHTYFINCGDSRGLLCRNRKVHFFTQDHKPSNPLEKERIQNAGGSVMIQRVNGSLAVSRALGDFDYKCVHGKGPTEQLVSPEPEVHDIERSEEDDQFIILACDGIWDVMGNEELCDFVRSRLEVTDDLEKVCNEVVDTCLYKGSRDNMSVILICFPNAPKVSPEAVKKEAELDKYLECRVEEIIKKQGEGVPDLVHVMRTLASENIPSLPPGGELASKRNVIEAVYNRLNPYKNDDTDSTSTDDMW

[5] = various concentrations, 48 h, relative to water control
[6] = whole DRG ex vivo, 3 μM, 48 hours
[7] = whole DRG ex vivo, 10 μM, 48 hours

CCCCCCCCCCCC[C@@H]1NC(=O)[C@@H](CCCNC(=N)N)NC(=O)[C@@H](CCCNC(=N)N)NC(=O)[C@@H](Cc2c[nH]c3ccccc23)NC(=O)[C@@H](Cc2c[nH]c3ccccc23)NC(=O)[C@@H](CCCNC(=N)N)NC(=O)[C@@H](CCC(=O)O)NC(=O)[C@@H](CC(=O)O)NC(=O)[C@@H](CC(C)C)NC(=O)[C@@H](CCC(=O)O)NC(=O)[C@H]2CCCN2C(=O)[C@H]2CCCN2C(=O)[C@@H](CCC(=O)O)NC(=O)[C@H]2CCCN2C(=O)[C@H]2CCCN2C(=O)[C@@H](CC(C)C)NC(=O)[C@H]2CCCN2C(=O)[C@@H](CCCCN)NC(=O)[C@@H](CCCNC(=N)N)NC(=O)[C@@H](CCCNC(=N)N)NC(=O)[C@@H](CCCNC(=N)N)NC(=O)[C@@H](CCCNC(=N)N)NC(=O)[C@@H](CCCNC(=N)N)NC1=O [SEQ ID NO: 12] (cyclo([dR][dW][dW][dR][dR][Gly(Dodecyl)][dR][dR][dR][dR][dR][dK][dP][dL][dP][dP][dE][dP][dP][dE][dL][dD][dE]))
Increase, BDNF mRNA ([1]; 0.3 μM, 48 h): 1.4x | Increase, BDNF mRNA ([1]; 1 μM, 48 h): 1.3x | Increase, KV4.3 mRNA ([1]; 1 μM, 48 h): 0x | Increase, KV7.2 mRNA ([1]; 1 μM, 48 h): 0 x | Increase, NGF mRNA ([1]; 1 μM, 48 h): No affect was observed | Increase, Nav1.8 mRNA ([1]; 1 μM, 48 h): 0.8x | Increase, OPRM1 mRNA ([1]; 1 μM, 48 h): 1.2x | Increase, NGF mRNA ([1]; 1 μM, 48 h, listed as 12): 0.9x | Increase, BDNF mRNA ([1]; 3 μM, 48 h): 1.3x | Increase, KV4.3 mRNA ([1]; 3 μM, 48 h): 0x | Increase, KV7.2 mRNA ([1]; 3 μM, 48 h): 6.7x | Increase, NGF mRNA ([1]; 3 μM, 48 h): 1.25 x | Increase, Nav1.8 mRNA ([1]; 3 μM, 48 h): 2.6x | Increase, OPRM1 mRNA ([1]; 3 μM, 48 h): 3x | Increase, BDNF mRNA ([1]; 10 μM, 48 h): 1.7 x | Increase, KV4.3 mRNA ([1]; 10 μM, 48 h): 1.9x | Increase, KV7.2 mRNA ([1]; 10 μM, 48 h): 7.5x | Increase, NGF mRNA ([1]; 10 μM, 48 h): 1.9 x | Increase, Nav1.8 mRNA ([1]; 10 μM, 48 h): 4x | Increase, OPRM1 mRNA ([1]; 10 μM, 48 h): 3.9x | mRNA expression of BDNF and NGF (in words) [1, 5]: increases expression of BDNF and NGF | mRNA expression of KV4.3, KV7.2, Nav1.8 and OPRM1 (in words) [1, 5]: increases expression of KV4.3, KV7.2, Nav1.8 and OPRM1 | increase of NGF ([1]; whole DRG ex vivo, 3 μM): approximately 50% | induction of KV4.3 compared to control [1, 6]: approximately 0 times | induction of Nav1.8 compared to control [1, 6]: 2.9 times and ~3 times | increase of BDNF expression ([1]; whole DRG ex vivo, 10 μM): ~75% | increase of NGF ([1]; whole DRG ex vivo, 10 μM): ~2 times | induction of KV7.2 compared to control [1, 7]: 9 times and ~7 times | induction of Nav1.8 compared to control [1, 7]: 4.8 times and ~5 times | increase of BDNF expression ([1]; whole DRG ex vivo, 0.3, 1, and 3 μM): approximately 25% | EC50 [2]: ~20 nM | % Activity (Average N = 5) ([3]; 10 nM RPP): 89.97% | % Activity (Average N = 5) ([3]; 20 nM RPP): 48.7% | % Activity (Average N = 5) ([3]; 40 nM RPP): 34.46% | % Activity (Average N = 5) ([3]; 60 nM RPP): 31.17% | % Activity (Average N = 5) ([3]; 80 nM RPP): 22.67% | % Activity (Average N = 5) ([3]; 100 nM RPP): 13.72% | % Activity (Average N = 5) [4]: 102.786%
